According to patent US4010264A, “7-[3-Substituted isoxazol-5-yl]-acetamido-cephalosporanic acids and their anti-bacterial use” (Koninklijke Nederlandsche Gist-en Spiritusfabriek N.V., priority 1970, dated 1977):
≈ marks a conversion by molar mass, not a printed value. Where a name gives a salt, the structure may show the parent alone. Read-outs that look alike come from different tables or passages of the source.

Key:
Brucella melitensis A488 = assay: microbe, parasite or virus in culture; format: cell-based; conditions: A488, 24 h
[1] = system: Streptococcus faecalis L 80; assay: MIC, agar serial dilution test; format: cell-based; conditions: Enterococcus faecalis
[2] = system: Bacillus subtilis ATCC 6633; assay: MIC, agar serial dilution test; format: cell-based; conditions: ATCC6633; Bacillus subtilis ATCC 6633; 24 hours at 37° C; read-out: MIC
[3] = system: Staphylococcus aureus L160a (penicillinase-producing); assay: MIC, agar serial dilution test; conditions: 24 h
[4] = system: Klebsiella pneumoniae A809; assay: MIC, agar serial dilution test; format: cell-based; conditions: Klebsiella pneumoniae A809; 24 hours at 37° C; read-out: MIC
[5] = system: Pseudomonas aeruginosa A 1058; assay: in vivo infection test in mice; conditions: A1058, in Mus musculus
[6] = system: Staphylococcus aureus A55; assay: MIC, agar serial dilution test; format: cell-based; conditions: Staphylococcus aureus A55; 24 hours at 37° C; read-out: MIC
[7] = system: Staphylococcus aureus A321; assay: MIC, agar serial dilution test; format: cell-based; conditions: Staphylococcus aureus A321; 24 hours at 37° C; read-out: MIC
[8] = system: Pasteurella multocida A723; assay: MIC, agar serial dilution test; format: cell-based; conditions: Pasteurella multocida A723; 24 hours at 37° C; read-out: MIC
[9] = system: Staphylococcus aureus A355 (penicillinase-producing); assay: MIC, agar serial dilution test; conditions: 24 h
[10] = system: Staphylococcus aureus A 2001; assay: in vivo infection test in mice; conditions: A2001, in Mus musculus
Proteus mirabilis O.T. = assay: in vivo infection test in mice; conditions: in Mus musculus
[11] = system: Staphylococcus aureus A 321; assay: in vivo infection test in mice; conditions: A321, in Mus musculus
[12] = system: Streptococcus haemolyticus A266; assay: MIC, agar serial dilution test; format: cell-based; conditions: Streptococcus haemolyticus A266; 24 hours at 37° C; read-out: MIC
[13] = system: Diplococcus pneumoniae L 54; assay: MIC, agar serial dilution test; format: cell-based; conditions: Streptococcus pneumoniae, L54; Diplococcus pneumoniae L 54; 24 hours at 37° C; read-out: MIC
[14] = system: Salmonella typhi murium R 172; assay: in vivo infection test in mice; conditions: Salmonella enterica, in Mus musculus
[15] = system: Staphylococcus aureus A 2000; assay: in vivo infection test in mice; conditions: A2000, in Mus musculus
[16] = percentages of bound serum by ultrafiltration and dialysis; format: in vitro ADME; conditions: read-out: percentage of bound serum (converted)
in vivo = conditions: mouse, ip
[17] = secretion of compound in urine after intramuscular administration in rabbits; format: in vivo, rabbits (Nieuw Zeelander); conditions: rabbit, im, 50 mg/kg intramuscular, average, read-out: Secretion of compound in urine in % of the administered dose
Experimental: (§1) c. […] The rabbits were provided with "Cunicon" and water ad libitum. Each test group consisted of 3 rabbits. The dose was 50 mg/kg using water as the vehicle. […] The contents of the compound in the samples were determined microbiologically (only microbiologically detected amounts, i.e. anti-bacterially active concentrations only have been indicated).

[18] = system: Staphylococcus aureus A 2001; assay: protection test in mice, Staphylococcus aureus
Escherichia coli 65161 = assay: protection test in mice, Escherichia coli; format: in vivo, female mice (Swiss SPF)
[19] = blood (serum) contents after intramuscular administration in rabbits; format: in vivo, rabbits (Nieuw Zeelander); conditions: rabbit, im, 50 mg/kg intramuscular, average, read-out: Serum level
Experimental: as §1

[20] = L80, Streptococcus faecalis L 80, 24 hours at 37° C, read-out: MIC

| Compound | MIC (Brucella melitensis A488) [µg/mL] | MIC [1, 20] [µg/mL] | MIC [2] [µg/mL] | MIC [3] [µg/mL] | MIC [4] [µg/mL] | ED50 ([5]; ip) [mg/kg] | MIC [6] [µg/mL] | MIC [7] [µg/mL] | MIC [8] [µg/mL] | MIC [9] [µg/mL] | ED50 ([10]; ip) [mg/kg] | ED50 ([10]; po) [mg/kg] | ED50 ([10]; sc) [mg/kg] | ED50 (Proteus mirabilis O.T.; ip) [mg/kg] | ED50 (Proteus mirabilis O.T.; po) [mg/kg] | ED50 ([11]; ip) [mg/kg] | ED50 ([11]; po) [mg/kg] | ED50 ([11]; sc) [mg/kg] | MIC [12] [µg/mL] | MIC [13] [µg/mL] | other results |
| --- | --- | --- | --- | --- | --- | --- | --- | --- | --- | --- | --- | --- | --- | --- | --- | --- | --- | --- | --- | --- | --- |
| CC(=O)OCC1=C(C(=O)O)N2C(=O)C(NC(=O)Cc3cc(-c4c(C)cc(C)cc4C)no3)C2SC1 (stereo not drawn) [VII, Sodium salt of 7-{[3-(2,4,6-trimethyl)phenylisoxazol-5-yl]acetamido}cephalosporanic acid] | 12.5 | 1 | 0.015 | 0.12 | 50 | > 215 | 0.06 | 0.06 | 50 | 0.25 | 17.1 | > 215 | 140 | > 215 | ~215 | 3.8 | 70 | 18.5 | 0.03 | 0.03 | ED50 ([5]; po): > 215 mg/kg; ED50 ([14]; ip): > 215 mg/kg; ED50 ([14]; po): > 215 mg/kg |
| CC1=C(C(=O)O)N2C(=O)C(NC(=O)Cc3cc(-c4c(Cl)cccc4Cl)no3)C2SC1 (stereo not drawn) [Example IV, Sodium salt of 7{[3-(2,6-dichlorophenyl)isoxazol-5-yl]acetamido}desacetoxycephalosporanicacid] | 12.5 |  | 1 | 1.5 | > 100 | > 215 | 0.75 | 0.5 | 6 | 3 | 23.3 | ~200 | > 215 | > 215 |  | 23.3 | 50.1 | 31.6 | 0.5 | 0.75 | MIC ([1]; L80, 24 h): 12.5 µg/mL; ED50 ([15]; ip): 19.6 mg/kg; ED50 ([15]; po): > 215 mg/kg; ED50 ([15]; sc): > 215 mg/kg; ED50 ([14]; ip): > 215 mg/kg |
| Cc1cc(C)c(-c2cc(C(C)C(=O)NC3C(=O)N4C3SC(C)(C)C4C(=O)O)on2)c(C)c1 (stereo not drawn) [Example XI, Cyclohexylamine salt of 6{α-methyl-[3-(2,4,6-trimethyl)phenylisoxazol-5-yl]acetamido}penicillanic acid] | 3 | 1.5 | 0.06 | 12.5 | 100 |  | 0.12 | 0.06 | 50 | 12.5 |  |  |  | > 300 | > 300 | > 21.5 | > 100 |  | 0.007 | 0.12 | ED50 ([5]; po): > 300 mg/kg |
| CC1(C)S[C@@H]2C(NC(=O)Cc3onc(-c4c(Cl)cccc4Cl)c3C(=O)O)C(=O)N2[C@H]1C(=O)O (stereo partly drawn) [Example V, 6-{[3-(2,6-dichlorophenyl)-4-carboxyisoxazol-5-yl]acetamido}penicillanic acid] | 25 (≈ 48.6 µM) | 25 (≈ 48.6 µM) | 0.5 (≈ 0.972 µM) | 3 (≈ 5.83 µM) | > 100 |  | 1 (≈ 1.94 µM) | 1 (≈ 1.94 µM) | 1.5 (≈ 2.92 µM) | 12.5 (≈ 24.3 µM) |  |  |  | > 300 | > 300 | < 100 | > 215 |  | 0.5 (≈ 0.972 µM) | 6 (≈ 11.7 µM) |  |
| CC(=O)OCC1=C(C(=O)O)N2C(=O)C(NC(=O)Cc3cc(C)no3)C2SC1 (stereo not drawn) [Example XXII, 7-{[3-methyl-isoxazol-5-yl]acetamido}cephalosporanic acid] | 12.5 (≈ 31.6 µM) | 25 (≈ 63.2 µM) | 0.06 (≈ 0.152 µM) | 1 (≈ 2.53 µM) | 3 (≈ 7.59 µM) |  | 0.5 (≈ 1.26 µM) | 0.5 (≈ 1.26 µM) | 3 (≈ 7.59 µM) | 1 (≈ 2.53 µM) |  |  |  |  |  |  |  |  | 0.12 (≈ 0.303 µM) | 0.5 (≈ 1.26 µM) | fraction unbound ([16]; dialysis): 0.72; fraction unbound ([16]; ultrafiltration): 0.67; LD50 (in vivo): > 8000 mg/kg; dose excreted at 6 h ([17]; after 6 hrs.): 41.4%; dose excreted at 27 h ([17]; after 27 hrs.): 46.9%; ED50 ([18]; Staphylococcus aureus, A2001, in Mus musculus, sc, 168 h): 23 mg/kg; Potency Ratio ([18]; vs Cephalotin, S. aureus A 2001, subcutaneously, limits (0.73-4.92) printed): 1.90; ED50 (Escherichia coli 65161; ip, 168 h, Escherichia coli 65161 i.p., method of administration intraperitoneal): 100 mg/kg; Potency Ratio (Escherichia coli 65161; vs Cephalotin, E. coli 65161, intraperitoneal, limits (0.52-2.53) printed): 1.15; concentration at 0.5 h ([19]; after 1/2 hr.): 45000 ng/mL; concentration at 0.25 h ([19]; after 1/4 hr.): 57500 ng/mL; concentration at 1 h ([19]; after 1 hr.): 12300 ng/mL; concentration at 2 h ([19]; after 2 hrs.): 1700 ng/mL; concentration at 4 h ([19]; after 4 hrs.): < 1000 ng/mL |
| CC1(C)SC2C(NC(=O)Cc3cc(-c4c(Cl)cccc4Cl)no3)C(=O)N2C1C(=O)O (stereo not drawn) [Example I, Sodium salt of 6-{[3-(2,6-dichlorophenyl)isoxazol-5-yl]acetamido}-penicillanic acid] | 0.5 | 50 | 0.007 | 1 | 100 | > 215 | 0.01 | 0.015 | 2 | 3 | > 215 | > 215 | > 215 |  |  | 10.8 | 126 | 36.9 | 0.007 | 0.25 | ED50 ([15]; ip): 133 mg/kg; ED50 ([15]; po): > 215 mg/kg; ED50 ([15]; sc): > 215 mg/kg; ED50 ([14]; ip): > 215 mg/kg |
| CCC(Oc1ccccc1)C(=O)N[C@@H]1C(=O)N2[C@@H]1SC(C)(C)[C@@H]2C(=O)O (stereo partly drawn) [Propicillin, reference compound] |  |  |  |  |  |  |  |  |  |  | 133 | > 215 | > 215 |  |  |  | 10.8 | 2.33 |  |  | ED50 ([15]; ip): 88 mg/kg; ED50 ([15]; po): > 215 mg/kg; ED50 ([15]; sc): > 215 mg/kg |
